The target in one assay is T1, human α7 nAChR subtype (Homo sapiens, UniProt P36544).
T1 construct: expressed in transfected cells; host or cells: SH-SY5Y cells (membranes)
The assay is described as follows: biochemical. Format: binding.

For assay [1], the system named is citric acid-induced cough in guinea pigs. The assay is described as follows: In vivo citric acid-induced cough in guinea pigs (whole body plethysmograph). The settings on record: for cough incubation period: p<0.05 vs saline control (232 seconds). How it is done: As depicted in FIG. 1, cough induction is conducted by placing guinea pigs into a whole body plethysmograph (WBP) equipped with a Aeroneb™ vibrating mesh nebulizer, and including pressure transducers and detection equipment (EMKA technologies). A primary microphone is supplied (EMKA Technologies) for acoustic confirmation of cough frequency in the form of a digital trace using the EMKA software.
A secondary microphone (T1 True Wireless Earphone, QCY®) also is placed in the chamber and connected to a smartphone via Bluetooth to enable the observers to hear the audible sounds during the test. A bias flow rate of 2 L/min is used to continuously draw either atmospheric air (during the fresh air period) or aerosolized citric acid from the nebulizer into the WBP and expel it out through an exhaust pipe. Chamber pressure in the WBP is set to be between −10 to −30 Pa relative to ambient pressure.
Prior to the citric acid challenge, the guinea pigs are administered (intraperitoneal injection) with vehicle control, positive control or test compound (where applicable) with different dosage (Table 2) and placed individually into the WBP for at least 5 minutes in order to habituate.
The procedure was as follows: Injection→mice in box having citric acid for 10 mins (counting the cough)→box then fill with air for 5 mins (counting the cough)→mice move to recovery cage.
Appropriate concentration of citric acid is used to generate aerosol and deliver to WBP for 10 minutes with constant recording of pressure measurements. The mean concentration of citric acid was 1283.1±137.2 μg/L. Upon completion of citric acid challenge, the guinea pig is allowed to recover and continue recording of cough counts for another 5 minutes. Subsequently, the guinea pigs are closely monitored in recovery cage for full recovery from the challenge and that no adverse events were present before returning the animals to its home cage. Cough counts (CCnt) are recorded over a period of at least 10 mins, starting from citric acid stimulation and cough incubation period (CIP) are defined as the time it takes to cough for the first time after citric acid stimulation.
The cough response during citric acid challenge and post-treatment recovery is carefully monitored using: • continuous pressure monitoring (plethysmography monitoring software) • acoustic confirmation of cough using microphones (primary and secondary) • visual confirmation of cough through posture change.
The data were analysed using Oneway ANOVA (*p<0.05, **p<0.01, ***p<0.001, ****p<0.0001) when compared to saline control, and each column represents Mean±SEM.

The text below walks through data of patent US20250268910A1 (priority 2022, published 2025).

T1 sequence (P36544 23-502): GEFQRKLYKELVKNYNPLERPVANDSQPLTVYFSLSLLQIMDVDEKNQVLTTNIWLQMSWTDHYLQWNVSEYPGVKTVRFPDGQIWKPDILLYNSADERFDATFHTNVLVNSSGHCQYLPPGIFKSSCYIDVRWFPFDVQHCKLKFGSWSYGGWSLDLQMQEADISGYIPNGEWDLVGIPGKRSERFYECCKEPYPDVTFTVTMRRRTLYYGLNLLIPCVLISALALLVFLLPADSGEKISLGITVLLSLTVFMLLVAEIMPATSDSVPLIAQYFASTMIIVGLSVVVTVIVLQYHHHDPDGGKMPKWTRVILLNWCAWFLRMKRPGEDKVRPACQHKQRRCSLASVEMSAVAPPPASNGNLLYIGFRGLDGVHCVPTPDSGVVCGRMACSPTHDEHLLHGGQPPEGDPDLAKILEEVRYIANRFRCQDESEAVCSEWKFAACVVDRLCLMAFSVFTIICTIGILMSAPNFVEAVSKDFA

Regarding `C1=C(c2ccc(-c3ccccc3)nc2)C2CCN(C1)CC2` [4-(6-Phenyl-3-pyridyl)-1-azabicyclo[3.2.2]non-3-ene], the Ki on human α7 nAChR subtype was determined as 130 nM. Further, the “citric acid-induced cough counts (number of coughs)” value in assay [1] (high concentration 15 mg/kg intraperitoneal, p<0.05 vs saline control (13 coughs)) worked out at 7; in assay [1] (low concentration 1.5 mg/kg intraperitoneal, p<0.0001 vs saline control (13 coughs)), 3; in assay [1] (medium concentration 5 mg/kg intraperitoneal, p<0.05 vs saline control (13 coughs)), 6. Moreover, the cough incubation period in assay [1] (high concentration 15 mg/kg intraperitoneal) amounted to 491 s; in assay [1] (low concentration 1.5 mg/kg intraperitoneal), 504 s.

As for `C1=C(c2ccc(-c3ccccc3)nn2)C2CCN(C1)CC2` [4-(6-Phenylpyridazin-3-yl)-1-azabicyclo[3.2.2]non-3-ene], the affinity at human α7 nAChR subtype, expressed as Ki, was 320 nM.

Broadly, the Ki is a measure of affinity in units of concentration, obtained from inhibition or displacement. Higher therefore signals weaker binding.
